Assay results published in patent US20250228239A1, “MOLECULES HAVING PESTICIDAL UTILITY, AND INTERMEDIATES, COMPOSITIONS, AND PROCESSES, RELATED THERETO” (priority 2024, published 2025).
Read-outs that look alike come from different tables or passages of the source.

Legend:
Format in all cases: in vivo
[1] = system: Beet Armyworm (Spodoptera exigua, LAPHEG); assay: Bioassays on Beet Armyworm (BAW), 128-well diet tray assay; settings: Spodoptera exigua
Summary of the method: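 Larvae at second instar are exposed on dried, compound-treated diet (50 μg/cm^2, delivered in 90:10 acetone-water) in eight replicate wells. After five to seven days at 25° C., 14:10 light-dark, percent mortality in each well is scored and the eight wells averaged.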

[2] = system: Yellow Fever Mosquito (Aedes aegypti, AEDSAE); settings: for YFM rating: Table ABC / ABC-DP rating
Summary of the method: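 Larvae ~1 day old, in liver powder/water; compound from 4000 ppm DMSO stock diluted with water/acetone (90:10); 6 reps; lidded, RT, 3 d; mortality scored per well, rated.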

[3] = system: Cabbage Looper (Trichoplusia ni, TRIPNI); assay: Bioassays on Cabbage Looper (CL), 128-well diet tray assay; settings: Trichoplusia ni
Summary of the method: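 Percent mortality, averaged across eight replicate wells, after second-instar larvae (1–5 per well) fed for five to seven days on diet dosed at 50 μg/cm^2. Compound was applied in acetone-water 90:10 and dried; trays kept vented at 25° C under 14:10 photoperiod.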

[4] = Beet Armyworm, Table ABC / ABC-DP rating, read-out: BAW rating
[5] = Cabbage Looper, Table ABC / ABC-DP rating, read-out: CL rating
[6] = Table ABC: Biological Results, species BAW, read-out: BAW
[7] = Table ABC: Biological Results, species YFM
[8] = Table ABC: Biological Results, species CL, read-out: CL
[9] = Beet Armyworm, rating class, read-out: BAW
[10] = Yellow Fever Mosquito, rating class
[11] = Cabbage Looper, rating class, read-out: CL

For `CN(N=CCC(F)(F)F)C(=O)c1cc(NC(=O)[C@H]2[C@H](c3cc(Cl)cc(Cl)c3)C2(Cl)Cl)ccc1Cl` (relative stereo) [F3009, trans-2,2-dichloro-N-(4-chloro-3-(1-methyl-2-(3,3,3-trifluoropropylidene)hydrazine-1-carbonyl)phenyl)-3-(3,5-dichlorophenyl)cyclopropane-1-carboxamide], the mortality at 50 µg/cm2 ([1]; 168 h, second instar larvae, 50 μg/cm^2 of test molecule on artificial diet, 25° C., five to seven days, average of eight wells, read-out: BAW % Control (or Mortality) rating) was 50 to 100%, the pest or weed control at 50 µg/cm2 [1, 4] was 50 to 100% and the YFM rating ([2]; Yellow Fever Mosquito) was “A (80–100)”. The “YFM % Control (or Mortality) rating” value ([2]; about 1 day-old larvae, 4000 ppm master solution diluted with 90:10 water/acetone, 15 μL per well plus 220 μL larval mixture, 3 days, mortality) was “A (80–100)”, the mortality at 50 µg/cm2 ([3]; 168 h, second instar larvae, 50 μg/cm^2 of test molecule on artificial diet, 25° C., five to seven days, average of eight wells, read-out: CL % Control (or Mortality) rating) was 50 to 100% and the pest or weed control at 50 µg/cm2 [3, 5] was 50 to 100%.

`N#Cc1cc(NC(=O)c2cc(NC(=O)[C@H]3[C@H](c4ccc(F)c(Cl)c4)C3(Cl)Cl)ccc2Cl)ccc1N` (relative stereo) [F1387, trans-N-(4-Amino-3-cyanophenyl)-2-chloro-5-(2,2-dichloro-3-(3-chloro-4-fluorophenyl)cyclopropane-1-carboxamido)benzamide] was tested, and the pest or weed control at 50 µg/cm2 [1, 6] was 50 to 100%, the YFM [2, 7] was “A (80–100)” and the pest or weed control at 50 µg/cm2 [3, 8] was 50 to 100%.

For `CC(Cl)CC(=O)Nc1c(F)ccc(NC(=O)c2cc(NC(=O)[C@H]3[C@H](c4ccc(F)c(C(F)(F)F)c4)C3(Cl)Cl)ccc2Cl)c1F` (stereo partly drawn) [F1669, 2-Chloro-N-(3-(3-chlorobutanamido)-2,4-difluorophenyl)-5-((1R,3R)-2,2-dichloro-3-(4-fluoro-3-(trifluoromethyl)phenyl)cyclopropane-1-carboxamido)benzamide], the pest or weed control at 50 µg/cm2 [1, 9] was 50 to 100%, the YFM [2, 10] was “A (80–100)” and the pest or weed control at 50 µg/cm2 [3, 11] was 50 to 100%.

In the case of `CCC(Cl)C(=O)Nc1c(F)ccc(NC(=O)c2cc(NC(=O)[C@H]3[C@H](c4ccc(F)c(C(F)(F)F)c4)C3(Cl)Cl)ccc2Cl)c1F` (stereo partly drawn) [F1668, 2-Chloro-N-(3-(2-chlorobutanamido)-2,4-difluorophenyl)-5-((1R,3R)-2,2-dichloro-3-(4-fluoro-3-(trifluoromethyl)phenyl)cyclopropane-1-carboxamido)benzamide], the pest or weed control at 50 µg/cm2 [1, 9] is reported as 50 to 100%, the YFM [2, 10] is reported as “A (80–100)” and the pest or weed control at 50 µg/cm2 [3, 11] is reported as 50 to 100%.

`C=CCC(=O)Nc1c(F)ccc(NC(=O)c2cc(NC(=O)[C@H]3[C@H](c4ccc(F)c(Cl)c4)C3(Cl)Cl)ccc2Cl)c1F` [F1876, N-(3-(But-3-enamido)-2,4-difluorophenyl)-2-chloro-5-((1R,3R)-2,2-dichloro-3-(3-chloro-4-fluorophenyl)cyclopropane-1-carboxamido)benzamide] was tested, and the pest or weed control at 50 µg/cm2 [1, 4] was 50 to 100%, the YFM rating ([2]; Yellow Fever Mosquito) was “A (80–100)” and the pest or weed control at 50 µg/cm2 [3, 5] was 50 to 100%.

`O=C(Nc1ccc(F)c(NC(=O)C(F)(F)F)c1F)c1cc(NC(=O)[C@H]2[C@H](c3cc(Cl)c(Cl)c(Cl)c3)C2(Cl)Cl)cc(F)c1F` [F1438, 5-((1R,3R)-2,2-Dichloro-3-(3,4,5-trichlorophenyl)cyclopropane-1-carboxamido)-N-(2,4-difluoro-3-(2,2,2-trifluoroacetamido)phenyl)-2,3-difluorobenzamide] was tested, and the pest or weed control at 50 µg/cm2 [1, 9] was 50 to 100%, the YFM [2, 10] was “A (80–100)” and the pest or weed control at 50 µg/cm2 [3, 11] was 50 to 100%.

With `O=C(Nc1ccc(F)c(NC(=O)C(Cl)Cl)c1F)c1cc(NC(=O)[C@H]2[C@H](c3cc(Cl)c(Cl)c(Cl)c3)C2(Cl)Cl)ccc1Cl` [F1685, 2-Chloro-5-((1R,3R)-2,2-dichloro-3-(3,4,5-trichlorophenyl)cyclopropane-1-carboxamido)-N-(3-(2,2-dichloroacetamido)-2,4-difluorophenyl)benzamide] the pest or weed control at 50 µg/cm2 [1, 9] was 50 to 100%, the YFM [2, 10] was “A (80–100)” and the pest or weed control at 50 µg/cm2 [3, 11] was 50 to 100%.

In the case of `Nc1c(F)ccc(NC(=O)c2cc(NC(=O)[C@H]3[C@H](c4cc(Cl)c(F)c(Cl)c4)C3(Cl)Cl)ccc2Cl)c1F` (relative stereo) [F1181, trans-N-(3-Amino-2,4-difluorophenyl)-2-chloro-5-(2,2-dichloro-3-(3,5-dichloro-4-fluorophenyl)cyclopropane-1-carboxamido)benzamide], the pest or weed control at 50 µg/cm2 [1, 6] is reported as 50 to 100%, the YFM [2, 7] is reported as “A (80–100)” and the pest or weed control at 50 µg/cm2 [3, 8] is reported as 50 to 100%.

`O=C(NCC(F)(F)C(F)(F)F)c1cc(NC(=O)[C@H]2[C@H](c3ccc(F)c(Cl)c3)C2(Cl)Cl)cc(F)c1Cl` (relative stereo) [F2035, trans-2-Chloro-5-(2,2-dichloro-3-(3-chloro-4-fluorophenyl)cyclopropane-1-carboxamido)-3-fluoro-N-(2,2,3,3,3-pentafluoropropyl)benzamide] was tested, and the pest or weed control at 50 µg/cm2 [1, 4] was 50 to 100%, the YFM rating ([2]; Yellow Fever Mosquito) was “A (80–100)” and the pest or weed control at 50 µg/cm2 [3, 5] was 50 to 100%.

With `O=C(Nc1ccc(F)cc1F)c1cc(NC(=O)C2C(c3cc(Br)cc(S(F)(F)(F)(F)F)c3)C2(Cl)Cl)ccc1Cl` (stereo not drawn) [F1032, cis-5-(3-(3-Bromo-5-(pentafluoro-λ^6-sulfanyl)phenyl)-2,2-dichiorocyclopropane-1-carboxamido)-2-chloro-N-(2,4-difluorophenyl)benzamide] the pest or weed control at 50 µg/cm2 [1, 6] was 50 to 100%, the YFM [2, 7] was “A (80–100)” and the pest or weed control at 50 µg/cm2 [3, 8] was 50 to 100%.

For `O=C(Nc1c(F)ccc(NC(=O)c2cc(NC(=O)[C@H]3[C@H](c4ccc(Cl)c(Cl)c4)C3(Cl)Cl)ccc2Cl)c1F)c1ccno1` [F1671, N-(3-(2-Chloro-5-((1R,3R)-2,2-dichloro-3-(3,4-dichlorophenyl)cyclopropane-1-carboxamido)benzamido)-2,6-difluorophenyl)isoxazole-5-carboxamide], the pest or weed control at 50 µg/cm2 [1, 9] was 50 to 100%, the YFM [2, 10] was “B (More than 0 – Less than 80)” and the pest or weed control at 50 µg/cm2 [3, 11] was 50 to 100%.

For `O=C(Nc1ccc(F)c(NC(=O)C2CCOC2)c1F)c1cc(NC(=O)[C@H]2[C@H](c3ccc(Cl)c(Cl)c3)C2(Cl)Cl)ccc1Cl` (stereo partly drawn) [F1610, N-(3-(2-Chloro-5-((1R,3R)-2,2-dichloro-3-(3,4-dichlorophenyl)cyclopropane-1-carboxamido)benzamido)-2,6-difluorophenyl)tetrahydrofuran-3-carboxamide], the pest or weed control at 50 µg/cm2 [1, 9] was 50 to 100%, the YFM [2, 10] was “A (80–100)” and the pest or weed control at 50 µg/cm2 [3, 11] was 50 to 100%.

`Cc1c(F)cc(NC(=O)[C@H]2[C@H](c3ccc(F)c(Cl)c3)C2(Cl)Cl)cc1C(=O)Nc1ccc(F)cc1` (relative stereo) [F1278, trans-5-(2,2-Dichloro-3-(3-chloro-4-fluorophenyl)cyclopropane-1-carboxamido)-3-fluoro-N-(4-fluorophenyl)-2-methylbenzamide] was tested, and the pest or weed control at 50 µg/cm2 [1, 6] was 50 to 100%, the YFM [2, 7] was “A (80–100)” and the pest or weed control at 50 µg/cm2 [3, 8] was 50 to 100%.

`Cc1cc(NCc2ccc([N+](=O)[O-])cc2)ccc1NC(=O)c1cc(NC(=O)[C@H]2[C@H](c3cc(Cl)cc(Cl)c3)C2(Cl)Cl)ccc1Cl` (relative stereo) [F1166, trans-2-Chloro-5-(2,2-dichloro-3-(3,5-dichlorophenyl)cyclopropane-1-carboxamido)-N-(2-methyl-4-((4-nitrobenzyl)amino)phenyl)benzamide] was tested, and the pest or weed control at 50 µg/cm2 [1, 6] was 50 to 100%, the YFM [2, 7] was “A (80–100)” and the pest or weed control at 50 µg/cm2 [3, 8] was 50 to 100%.

In the case of `CN(NC(=O)c1cc(NC(=O)[C@H]2[C@H](c3ccc(Cl)c(Cl)c3)C2(Cl)Cl)ccc1Cl)c1ccccc1` [F2513, (1R,3R)-2,2-Dichloro-N-(4-chloro-3-(2-methyl-2-phenylhydrazine-1-carbonyl)phenyl)-3-(3,4-dichlorophenyl)cyclopropane-1-carboxamide], the pest or weed control at 50 µg/cm2 [1, 4] is reported as 50 to 100%, the YFM rating ([2]; Yellow Fever Mosquito) is reported as “A (80–100)” and the pest or weed control at 50 µg/cm2 [3, 5] is reported as 50 to 100%.

`O=C(Nc1ccc(F)c(Br)c1)c1cc(NC(=O)[C@H]2[C@H](c3cc(Cl)cc(Cl)c3)C2(Cl)Cl)ccc1Cl` (relative stereo) [F1304, trans-N-(3-bromo-4-fluorophenyl)-2-chloro-5-(2,2-dichloro-3-(3,5-dichlorophenyl)cyclopropane-1-carboxamido)benzamide] was tested, and the pest or weed control at 50 µg/cm2 [1, 6] was 50 to 100%, the YFM [2, 7] was “A (80–100)” and the pest or weed control at 50 µg/cm2 [3, 8] was 50 to 100%.

In the case of `CC(C)(C)OC(=O)Nc1c(F)ccc(NC(=O)c2cc(NC(=O)[C@@H]3[C@@H](c4ccc(F)c(C(F)(F)F)c4)C3(Cl)Cl)ccc2Cl)c1F` [F1074, tert-Butyl-(3-(2-chloro-5-((1S,3S)-2,2-dichloro-3-(4-fluoro-3-(trifluoromethyl)phenyl)cyclopropane-1-carboxamido)benzamido)-2,6-difluorophenyl)carbamate], the pest or weed control at 50 µg/cm2 [1, 6] is reported as 50 to 100%, the YFM [2, 7] is reported as “A (80–100)” and the pest or weed control at 50 µg/cm2 [3, 8] is reported as 50 to 100%.

For `CN(NCCC(F)(F)F)C(=O)c1cc(NC(=O)[C@H]2[C@H](c3cc(Cl)cc(Cl)c3)C2(Cl)Cl)ccc1Cl` (relative stereo) [F2552, trans-2,2-Dichloro-N-(4-chloro-3-(1-methyl-2-(3,3,3-trifluoropropyl)hydrazine-1-carbonyl)phenyl)-3-(3,5-dichlorophenyl)cyclopropane-1-carboxamide], the pest or weed control at 50 µg/cm2 [1, 4] was 50 to 100%, the YFM rating ([2]; Yellow Fever Mosquito) was “A (80–100)” and the pest or weed control at 50 µg/cm2 [3, 5] was 50 to 100%.
